In patent publication US8629273B2, “Diazinylpyrazolyl compounds” (Bayer Intellectual Property GmbH, priority 2009, dated 2014):

Key:
[1] = logP by HPLC on reversed-phase columns (C 18), EU Guideline 79/831 Annex V.A8; type: physicochemical; settings: for chromatographic logP: reversed-phase HPLC column (C 18)
Boophilus microplus = Boophilus microplus test (BOOPMI injection); type: in vivo; settings: 20 μg/animal, injected into the abdomen, after 7 days
Experimental: Solvent: Dimethyl Sulphoxide To produce a suitable preparation of active compound, 10 mg of active compound are mixed with 0.5 ml of solvent, and the concentrate is diluted with water to the desired concentration. The active compound solution is injected into the abdomen (Boophilus microplus) and the animals are transferred into dishes and stored in a climatized room. The activity is monitored for deposition of fertile eggs. After 7 days, the activity in % is determined. 100% means that none of the ticks has laid fertile eggs.

Ctenocephalides felis = Ctenocephalides felis oral (CTECFE); type: in vivo; settings: 100 ppm in citrated cattle blood, after 2 days
Experimental: Solvent: 1 part by weight of dimethyl sulphoxide To produce a suitable preparation of active compound, 10 mg of active compound are mixed with 0.5 ml of dimethyl sulphoxide. One part of the concentrate is diluted with citrated cattle blood, and the desired concentration is prepared. 20 unfed adult fleas (Ctenocephalides felis) are placed into a chamber whose top and bottom ends are closed with gauze. A metal cylinder whose bottom end is closed with parafilm is placed onto the chamber. The cylinder contains the blood/active compound preparation, which can be taken up by the fleas through the parafilm membrane. After 2 days, the kill in % is determined. 100% means that all fleas have been killed; 0% means that none of the fleas have been killed.

Lucilia cuprina larvae = assay: Lucilia cuprina test (LUCICU); type: in vivo; settings: 100 ppm, treated horse meat, after 2 days
Experimental: Solvent: Dimethyl Sulphoxide To produce a suitable preparation of active compound, 10 mg of active compound are mixed with 0.5 ml of dimethyl sulphoxide, and the concentrate is diluted with water to the desired concentration. Containers containing horse meat treated with the active compound preparation of the desired concentration are populated with Lucilia cuprina larvae. After 2 days, the kill in % is determined. 100% means that all larvae have been killed; 0% means that none of the larvae have been killed.

[2] = system: larvae of the mustard beetle (Phaedon cochleariae); assay: Phaedon test (PHAECO spray treatment); type: in vivo; settings: after 7 days
Experimental: (§1) Solvents: 78.0 parts by weight of acetone • • 1.5 parts by weight of dimethyl formamide Emulsifier: 0.5 part by weight of alkylaryl polyglycol ether To produce a suitable preparation of active compound, 1 part by weight of active compound is mixed with the stated amounts of solvent and emulsifier, and the concentrate is diluted with emulsifier-containing water to the desired concentration. Discs of Chinese cabbage leaves (Brassica pekinensis) are sprayed with an active compound preparation of the desired concentration and, after drying, populated with larvae of the mustard beetle (Phaedon cochleariae). After 7 days, the activity in % is determined. 100% means that all beetle larvae have been killed; 0% means that none of the beetle larvae have been killed. The test was carried out and evaluated as described in Example B.4.

[3] = system: caterpillars of the army worm (Spodoptera frugiperda); assay: Spodoptera frugiperda test (SPODFR spray treatment); type: in vivo; settings: after 7 days
Experimental: as §1, with “maize” for “Chinese cabbage”, “(Zea mays)” for “(Brassica pekinensis)”, “caterpillars” for “larvae”, “army worm (Spodoptera frugiperda).” for “mustard beetle (Phaedon cochleariae).”, “caterpillars” for “beetle larvae”, “B.5.” for “B.4.”

adult Musca domestica = assay: Musca domestica test (MUSCDO); type: in vivo; settings: treated sponge
Experimental: Solvent: Dimethyl sulphoxide To prepare a suitable preparation of active compound, 10 mg of active component are mixed with 0.5 ml of dimethyl sulphoxide, and the concentrate is diluted with water to the desired concentration. Vessels containing a sponge which had been treated with the active compound preparation of the desired concentration are populated with adult Musca domestica. After the desired period of time, the kill in % is determined. 100% means that all flies have been killed; 0% means that none of the flies have been killed.

[4] = * LC-MS in the acidic range, pH 2.7, 0.1% aqueous formic acid and acetonitrile
[5] = ** LC-MS in the neutral range, pH 7.8, 0.001 molar aqueous ammonium bicarbonate and acetonitrile

| Compound | logP [1, 4] | activity (no deposition of fertile eggs) (Boophilus microplus) | kill (Ctenocephalides felis) | kill (Lucilia cuprina larvae) | activity (beetle larvae killed) ([2]; 100 g/ha) | logP [1, 5] | also measured |
| --- | --- | --- | --- | --- | --- | --- | --- |
| CC(C)Oc1nccnc1-n1nc(C(F)(F)F)c(-c2cc(Cl)cc(C(F)(F)F)c2)c1N=CN(C)C [Example 2-3] | 5.17* |  |  |  |  |  |  |
| FC(F)C(F)(F)c1nn(-c2ncccn2)c(N=Cc2ccc(Cl)cc2)c1-c1cc(Cl)cc(C(F)(F)F)c1 [Example 1-20] |  | 100% | 95% | 100% | 100% | 5.37** | activity (caterpillars killed) ([3]; 100 g/ha): 100%; kill (adult Musca domestica; 100 ppm): 100% |
| CCOc1nccnc1-n1nc(C(F)(F)F)c(-c2cc(Cl)cc(C(F)(F)F)c2)c1N=CN(C)C [Example 2-2] | 4.86* |  |  |  |  |  |  |
| CN(C)C=Nc1c(-c2ccc(Cl)cc2)c(C(F)(F)F)nn1-c1ncc(Cl)cn1 [Example 1-108] | 3.47* |  |  |  |  |  |  |
| FC(F)(F)c1cc(Cl)cc(-c2c(C(F)(F)F)nn(-c3ncccn3)c2NCc2ccc(Cl)cc2)c1 [compound (XXIII), reference compound] |  |  |  |  |  |  | activity (beetle larvae killed) ([2]; 20 g/ha): no activity |
| CCOC(C)=Nc1c(-c2cc(Cl)cc(C(F)(F)F)c2)c(C(F)(F)F)nn1-c1ncccn1 [Example 1-14] |  | 80% | 90% | 100% | 100% | 5.01** | kill (adult Musca domestica; 100 ppm): 80% |
| FC(F)(F)c1cc(Cl)cc(-c2c(C(F)(F)F)nn(-c3ncccn3)c2N=Cc2cccc(Br)c2)c1 [Example 1-39] |  | 100% | 80% | 100% | 100% |  | kill (adult Musca domestica; 100 ppm): 100% |
| COc1cc(C=Nc2c(-c3cc(Cl)cc(C(F)(F)F)c3)c(C(F)(F)C(F)F)nn2-c2ncccn2)cc(OC)c1OC [Example 1-29] |  | 100% | 95% | 100% | 100% | 4.67** | activity (caterpillars killed) ([3]; 100 g/ha): 100%; kill (adult Musca domestica; 100 ppm): 100% |
| COC=Nc1c(-c2ccc(Cl)c(C(F)(F)F)c2)c(C(F)(F)F)nn1-c1ncccn1 [Example 1-91] | 3.71 |  |  |  |  |  |  |
| Cc1nn(-c2ncccn2)c(N=CN(C)C)c1-c1ccc(Cl)cc1 [Example 1-7] | 1.09* |  |  |  | 100% |  |  |
| FC(F)(F)c1cc(Cl)cc(-c2c(C(F)(F)F)nn(-c3ncccn3)c2N=Cc2ccc(Cl)cc2)c1 [Example 1-16] |  | 100% |  |  | 100% | 5.53** | activity (beetle larvae killed) ([2]; 20 g/ha): 100% |
| COc1ccc(-c2c(C(F)(F)F)nn(-c3ncccn3)c2N=CN(C)C)cc1 [Example 1-5] | 1.87* | 100% |  |  |  |  |  |
| FC(F)(F)c1cc(Cl)cc(-c2c(C(F)(F)F)nn(-c3ncccn3)c2NCc2ccccc2)c1 [compound (XX), reference compound] |  |  |  |  |  |  | activity (beetle larvae killed) ([2]; 4 g/ha): 0%; activity (caterpillars killed) ([3]; 20 g/ha): 0% |
| COc1nccnc1-n1nc(C(F)(F)F)c(-c2cc(Cl)cc(C(F)(F)F)c2)c1N=Cc1ccccc1 [Example 2-9] |  | 100% | 90% | 100% | 100% | 5.56** | kill (adult Musca domestica; 20 ppm): 100% |
| CN(C)/C=N/c1c(-c2cc(Cl)cc(Br)c2)c(C(F)(F)F)nn1-c1ncccn1 [Example 1-9, N′-[4-(3-bromo-5-chlorophenyl)-1-(pyrimidin-2-yl)-3-(trifluoromethyl)-1H-pyrazol-5-yl]-N,N-dimethylimidoformamide] |  | 100% | 100% | 100% | 100% |  | activity (caterpillars killed) ([3]; 100 g/ha): 100%; chromatographic logP ([1]; pH 2.7, * LC-MS in the acidic range, pH 2.7, 0.1% aqueous formic acid and acetonitrile): 3.71 |
| CN(C)C=Nc1c(-c2cc(Cl)cc(C(F)(F)F)c2)c(C(F)(F)F)nn1-c1cnccn1 [Example 2-4] | 4.32* |  |  |  |  |  |  |
| COc1ccc(C=Nc2c(-c3cc(Cl)c4c(c3)OCO4)c(C(F)(F)C(F)F)nn2-c2nccnc2OC)cc1 [Example 2-12] |  |  |  |  | 100% | 4.41** | activity (caterpillars killed) ([3]; 100 g/ha): 100% |
| COc1ccc(C=Nc2c(-c3cc(Cl)c4c(c3)OCO4)c(C(F)(F)F)nn2-c2nccnc2OC)cc1 [Example 2-5] |  | 100% | 100% | 100% |  | 4.5** |  |
| FC(F)(F)c1cc(Cl)cc(-c2c(C(F)(F)C(F)(F)F)nn(-c3ncccn3)c2N=Cc2ccccc2)c1 [Example 1-42] |  | 100% | 95% | 100% | 100% | 5.46** | activity (caterpillars killed) ([3]; 100 g/ha): 100%; kill (adult Musca domestica; 100 ppm): 100% |
| COc1nccnc1-n1nc(C(F)(F)F)c(-c2cc(Cl)cc(C(F)(F)F)c2)c1N=CN(C)C [Example 2-1] | 4.52* |  | 80% |  |  |  |  |
| CN(C)C=Nc1c(-c2cc(Cl)cc(C(F)(F)F)c2)c(C(F)(F)F)nn1-c1ncccn1 [Example 1-2] | 3.89* | 95% | 100% | 100% | 100% | 3.84**; |  |
| FC(F)(F)c1nn(-c2ncccn2)c(N=Cc2ccccc2)c1-c1cc(Br)c2c(c1)CCO2 [Example 1-32] |  | 100% | 100% | 100% | 100% | 4.11** |  |
| COc1ccc(C=Nc2c(-c3cc(Cl)cc(C(F)(F)F)c3)c(C(F)(F)C(F)F)nn2-c2nccnc2OC)cc1 [Example 2-10] |  |  |  |  |  | 5.29** |  |
| COc1nccnc1-n1nc(C(F)(F)F)c(-c2cc(Cl)c(Cl)c(Cl)c2)c1/N=C/c1ccccc1 [Example 2-15, 1-(3-methoxypyrazin-2-yl)-N-phenylmethylene-4-(3,4,5-trichlorophenyl)-3-(trifluoromethyl)-1H-pyrazol-5-amine] |  | 100% | 90% | 100% |  |  | chromatographic logP ([1]; pH 7.8, ** LC-MS in the neutral range, pH 7.8, 0.001 molar aqueous ammonium bicarbonate and acetonitrile): 6.03 |
| FC(F)(F)c1cc(Cl)cc(-c2c(C(F)(F)F)nn(-c3ncccn3)c2N=Cc2ccccc2Br)c1 [Example 1-31] |  | 100% | 90% | 100% | 100% | 5.64** | kill (adult Musca domestica; 20 ppm): 90% |
| CN(C)C=Nc1c(-c2ccc(Cl)c(Cl)c2)c(C(F)(F)F)nn1-c1ncccn1 [Example 1-3] | 3.37* | 100% | 100% | 100% | 100% |  |  |
| CN(C)C=Nc1c(-c2cccc(Cl)c2)c(C(F)(F)F)nn1-c1ncccn1 [Example 1-8] | 2.65* |  |  |  | 100% |  |  |
| CN(C)C=Nc1c(-c2ccc(Cl)cc2)c(C(F)(F)Cl)nn1-c1ncccn1 [Example 1-4] | 2.8* |  |  |  | 100% |  |  |
| Cc1cnc(-n2nc(C(F)(F)F)c(-c3ccc(Cl)c(Cl)c3)c2N=CN(C)C)nc1 [Example 1-6] | 3.58* |  |  |  |  |  |  |
